# According to patent US6737383B1, “Herbicidal oxadiazolidines” (priority 1999, dated 2004):
# How the values were obtained:
# bedstraw = assay: Test B pre/postemergence bedstraw; assay type: in vivo, Galium aparine
# Procedure, shortened: (§1)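 Response is a visual 0-to-10 score relative to untreated plants, where 0 means no effect and 10 means complete control, taken twelve to sixteen days after application. Treatments went onto soil at planting and onto foliage of 1- to 4-leaf plants, using a surfactant-containing non-phytotoxic solvent.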
# blackgrass = assay: Test B pre/postemergence blackgrass; assay type: in vivo, Alopecurus myosuroides
# Procedure, shortened: as §1
# surinam grass = assay: Test B pre/postemergence surinam grass; assay type: in vivo, Brachiaria decumbens
# Procedure, shortened: as §1
# cocklebur = assay: Test B pre/postemergence cocklebur; assay type: in vivo, Xanthium strumarium
# Procedure, shortened: as §1
# giant foxtail = assay: Test B pre/postemergence giant foxtail; assay type: in vivo, Setaria faberii
# Procedure, shortened: as §1
# morningglory = assay: Test B pre/postemergence morningglory; assay type: in vivo, Ipomoea hederacea
# Procedure, shortened: as §1
# pigweed = assay: Test B pre/postemergence pigweed; assay type: in vivo, Amaranthus retroflexus
# Procedure, shortened: as §1
# rape = assay: Test B pre/postemergence rape; assay type: in vivo, Brassica napus
# Procedure, shortened: as §1
# soybean = assay: Test B pre/postemergence soybean; assay type: in vivo, Glycine max
# Procedure, shortened: as §1
# velvetleaf = assay: Test B pre/postemergence velvetleaf; assay type: in vivo, Abutilon theophrasti
# Procedure, shortened: as §1
# wheat = assay: Test B pre/postemergence wheat; assay type: in vivo, Triticum aestivum
# Procedure, shortened: as §1
# wild oat = assay: Test B pre/postemergence wild oat; assay type: in vivo, Avena fatua
# Procedure, shortened: as §1
# purple nutsedge = assay: Test B pre/postemergence purple nutsedge; assay type: in vivo, Cyperus rotundus
# Procedure, shortened: as §1
# smallflower flatsedge = assay: Test B flood test smallflower flatsedge; assay type: in vivo, Cyperus difformis
# Procedure, shortened: (§2)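 Read-out is a visual response score from 0 (no effect) to 10 (complete control), assigned by comparison with untreated controls. Treatment was applied at the 2-leaf stage, and plants stayed in the greenhouse for twelve to sixteen days before scoring.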
# duck salad = assay: Test B flood test duck salad; assay type: in vivo, Heteranthera limosa
# Procedure, shortened: as §2
# bamyardgrass = assay: Test B flood test barnyardgrass; assay type: in vivo, Echinochloa crus-galli
# Procedure, shortened: as §2
# [1] = Preemergence, Rate 62 g/ha, scale of 0 to 10 where 0 is no effect and 10 is complete control
# [2] = Preemergence, Rate 250 g/ha, scale of 0 to 10 where 0 is no effect and 10 is complete control
# [3] = Preemergence, Rate 500 g/ha, scale of 0 to 10 where 0 is no effect and 10 is complete control
# [4] = Rate 62 g/ha, Postemergence, scale 0 to 10, 0 no effect, 10 complete control
# [5] = Rate 125 g/ha, Postemergence, scale of 0 to 10 where 0 is no effect and 10 is complete control
# [6] = Rate 250 g/ha, Postemergence, scale of 0 to 10 where 0 is no effect and 10 is complete control
# [7] = Rate 500 g/ha, Postemergence, scale 0 to 10, 0 no effect, 10 complete control
# [8] = Rate 62 g/ha, headed Pre-emergence (flood test species), scale 0 to 10 (0 no effect, 10 complete control)
# [9] = Rate 125 g/ha, Pre-emergence, flood test species, scale 0 to 10 where 0 is no effect and 10 is complete control
# [10] = Rate 250 g/ha, Pre-emergence, flood-test species, scale 0 to 10, 0 is no effect, 10 is complete control
# [11] = Rate 500 g/ha, Pre-emergence, flood test species, scale 0 to 10 (0 no effect, 10 complete control)
smiles,measurement,setting,value
CC(C)N(C(=O)n1oc(=O)n(C2CC2)c1=O)c1ccc(F)cc1F [Compound 299],Bedstraw plant response rating,bedstraw; [1],10
same,Bedstraw plant response rating (0 to 10 scale),"bedstraw; Preemergence, Rate 125 g/ha",10
same,Bedstraw plant response rating,bedstraw; [2],10
same,Bedstraw plant response rating,bedstraw; [3],10
same,Bedstraw plant response rating,bedstraw; [4],2
same,Bedstraw plant response rating,bedstraw; [5],7
same,Blackgrass plant response rating,blackgrass; [1],9
same,Blackgrass plant response rating (0 to 10 scale),"blackgrass; Preemergence, Rate 125 g/ha",10
same,Blackgrass plant response rating,blackgrass; [2],10
same,Blackgrass plant response rating,blackgrass; [3],10
same,Blackgrass plant response rating,blackgrass; [4],7
same,Blackgrass plant response rating,blackgrass; [5],8
same,"Plant response rating, Blackgrass",blackgrass; [6],8
same,Blackgrass plant response rating,blackgrass; [7],9
same,B. signalgrass plant response rating,surinam grass; [1],6
same,"B. signalgrass plant response rating (0 to 10 scale, 0 is no effect, 10 is complete control)","surinam grass; Preemergence, Rate 125 g/ha",9
same,B. signalgrass plant response rating,surinam grass; [2],9
same,B. signalgrass plant response rating,surinam grass; [3],10
same,B. signalgrass plant response rating,surinam grass; [4],0
same,B. signalgrass plant response rating,surinam grass; [5],3
same,"Plant response rating, B. signalgrass",surinam grass; [6],7
same,B. signalgrass plant response rating,surinam grass; [7],8
same,Cocklebur plant response rating,cocklebur; [1],0
same,Cocklebur plant response rating (0 to 10 scale),"cocklebur; Preemergence, Rate 125 g/ha",0
same,Cocklebur plant response rating,cocklebur; [2],0
same,Cocklebur plant response rating,cocklebur; [3],0
same,Cocklebur plant response rating,cocklebur; [4],0
same,Cocklebur plant response rating,cocklebur; [5],2
same,"Plant response rating, Cocklebur",cocklebur; [6],4
same,Cocklebur plant response rating,cocklebur; [7],5
same,Giant foxtail plant response rating,giant foxtail; [1],9
same,Giant foxtail plant response rating (0 to 10 scale),"giant foxtail; Preemergence, Rate 125 g/ha",10
same,Giant foxtail plant response rating,giant foxtail; [2],10
same,Giant foxtail plant response rating,giant foxtail; [3],10
same,Giant foxtail plant response rating,giant foxtail; [4],7
same,Giant foxtail plant response rating,giant foxtail; [5],7
same,"Plant response rating, Giant foxtail",giant foxtail; [6],8
same,Morningglory plant response rating,morningglory; [1],0
same,Morningglory plant response rating (0 to 10 scale),"morningglory; Preemergence, Rate 125 g/ha",2
same,Morningglory plant response rating,morningglory; [2],6
same,Morningglory plant response rating,morningglory; [3],7
same,Morningglory plant response rating,morningglory; [4],3
same,Morningglory plant response rating,morningglory; [5],5
same,"Plant response rating, Morningglory",morningglory; [6],6
same,Redroot pigweed plant response rating,pigweed; [1],9
same,Redroot pigweed plant response rating (0 to 10 scale),"pigweed; Preemergence, Rate 125 g/ha",10
same,Redroot pigweed plant response rating,pigweed; [2],10
same,Redroot pigweed plant response rating,pigweed; [3],10
same,Redroot pigweed plant response rating,pigweed; [4],2
same,Redroot pigweed plant response rating,pigweed; [5],3
same,"Plant response rating, Redroot pigweed",pigweed; [6],6
same,Rape plant response rating,rape; [1],1
same,Rape plant response rating (0 to 10 scale),"rape; Preemergence, Rate 125 g/ha",8
same,Rape plant response rating,rape; [2],10
same,Rape plant response rating,rape; [3],10
same,Rape plant response rating,rape; [4],1
same,Rape plant response rating,rape; [5],3
same,"Plant response rating, Rape",rape; [6],7
same,Soybean plant response rating,soybean; [1],0
same,Soybean plant response rating (0 to 10 scale),"soybean; Preemergence, Rate 125 g/ha",0
same,Soybean plant response rating,soybean; [2],6
same,Soybean plant response rating,soybean; [3],7
same,Soybean plant response rating,soybean; [5],6
same,"Plant response rating, Soybean",soybean; [6],6
same,Velvetleaf plant response rating,velvetleaf; [1],6
same,Velvetleaf plant response rating (0 to 10 scale),"velvetleaf; Preemergence, Rate 125 g/ha",7
same,Velvetleaf plant response rating,velvetleaf; [2],8
same,Velvetleaf plant response rating,velvetleaf; [3],8
same,Velvetleaf plant response rating,velvetleaf; [4],0
same,Velvetleaf plant response rating,velvetleaf; [5],0
same,"Plant response rating, Velvetleaf",velvetleaf; [6],6
same,Wheat plant response rating,wheat; [1],3
same,Wheat plant response rating (0 to 10 scale),"wheat; Preemergence, Rate 125 g/ha",7
same,Wheat plant response rating,wheat; [2],8
same,Wheat plant response rating,wheat; [3],8
same,Wheat plant response rating,wheat; [4],0
same,Wheat plant response rating,wheat; [5],3
same,"Plant response rating, Wheat",wheat; [6],6
same,Wild oats plant response rating,wild oat; [1],2
same,Wild oats plant response rating (0 to 10 scale),"wild oat; Preemergence, Rate 125 g/ha",7
same,Wild oats plant response rating,wild oat; [2],8
same,Wild oats plant response rating,wild oat; [3],8
same,Wild oats plant response rating,wild oat; [4],0
same,Wild oats plant response rating,wild oat; [5],0
same,"Plant response rating, Wild oats",wild oat; [6],3
same,Nutsedge plant response rating,purple nutsedge; [1],0
same,Nutsedge plant response rating (0 to 10 scale),"purple nutsedge; Preemergence, Rate 125 g/ha",0
same,Nutsedge plant response rating,purple nutsedge; [4],0
same,Nutsedge plant response rating,purple nutsedge; [5],0
same,"Plant response rating, Nutsedge",purple nutsedge; [6],0
same,S. Flatsedge plant response rating,smallflower flatsedge; [8],0
same,S. Flatsedge plant response rating,smallflower flatsedge; [9],0
same,S. Flatsedge plant response rating,smallflower flatsedge; [10],0
same,S. Flatsedge plant response rating,smallflower flatsedge; [11],0
same,Ducksalad plant response rating,duck salad; [8],0
same,Ducksalad plant response rating,duck salad; [9],0
same,Ducksalad plant response rating,duck salad; [10],0
same,Ducksalad plant response rating,duck salad; [11],0
same,Barnyardgrass plant response rating,bamyardgrass; [8],0
same,Barnyardgrass plant response rating,bamyardgrass; [9],2
same,Barnyardgrass plant response rating,bamyardgrass; [10],6
same,Barnyardgrass plant response rating,bamyardgrass; [11],9
